DBAASP
In brackets after ≈: the same amount, converted by molar mass. Values belong to the compound of their own block, whether it stands above or below them.

Assays:
Test in all cases: ≥ marks a high value that may be exact or a test limit, other limits are often not marked, values filed in µg/mL are converted to µM
[1] = system: Streptococcus agalactiae CECT 183T
[2] = system: Candida glabrata ATCC 90030
Candida krusei ATCC 6258 = system: Candida krusei ATCC 6258
Staphylococcus aureus MR = system: Staphylococcus aureus MR
[3] = system: Staphylococcus aureus CECT 435
[4] = system: Escherichia coli CECT 434
[5] = system: Enterococcus faecalis CECT 481
[6] = system: Bacillus subtilis ATCC 6633
[7] = system: Enterococcus faecium ATCC 19434
[8] = system: Staphylococcus aureus ATCC 29213
[9] = system: Proteus mirabilis CCUG 26767
[10] = system: Enterococcus faecalis ATCC 19433
[11] = system: Escherichia coli ATCC 25922
[12] = system: Klebsiella pneumoniae ATCC 13883
[13] = system: Pseudomonas aeruginosa ATCC 27853
[14] = system: Salmonella enterica subsp. enterica serovar Typhimurium LT2
[15] = system: Micrococcus luteus NCIMB 13267
Escherichia coli K-12 = system: Escherichia coli K-12
[16] = system: Staphylococcus aureus ATCC 6538
[17] = system: Candida albicans ATCC 90028
Candida krusei NCPF 3876 = system: Candida krusei NCPF 3876
[18] = system: Acinetobacter baumannii ATCC 17978
[19] = system: Staphylococcus aureus ATCC 9144
[20] = system: Pseudomonas aeruginosa PAO1
[21] = system: Escherichia coli NCTC 12923
[22] = system: Staphylococcus aureus USA 300
[23] = system: Klebsiella pneumoniae NCTC 13368
[24] = system: Pseudomonas aeruginosa PA214
[25] = system: Acinetobacter baumannii ATCC 19606
[26] = system: Acinetobacter baumannii ATCC BAA-1605
[27] = system: Staphylococcus aureus ATCC 33591
[28] = system: Acinetobacter baumannii CR17
[29] = system: Enterococcus faecium ATCC 700221
[30] = system: Klebsiella pneumoniae ATCC 700603
[31] = system: Enterococcus faecalis ATCC 29212
[32] = system: Bacillus cereus ATCC 10876
[33] = system: Streptococcus dysgalactiae subsp. dysgalactiae ATCC 27957
[34] = system: Salmonella enterica subsp. enterica serovar Typhimurium ATCC 14028
[35] = system: Streptococcus agalactiae ATCC 27956
[36] = system: Streptococcus equi subsp. zooepidemicus ATCC 43079

SMILES: CC[C@H](C)[C@H](NC(=O)CNC(=O)[C@H](CCC(N)=O)NC(=O)[C@@H](NC(=O)[C@@H]1CCCN1C(=O)CNC(=O)[C@H](CC(=O)O)NC(=O)CNC(=O)[C@H](CCCCN)NC(=O)[C@H](CC(C)C)NC(=O)[C@@H](NC(=O)[C@H](CS)NC(=O)[C@@H](NC(=O)[C@H](C)NC(=O)[C@H](CCCCN)NC(=O)[C@@H](NC(=O)[C@H](C)N)[C@@H](C)O)C(C)C)C(C)C)C(C)C)C(=O)N[C@H](C(=O)N[C@@H](CC(N)=O)C(=O)N[C@@H](Cc1ccccc1)C(=O)O)[C@@H](C)CC [ATKAVCVLKGDGPVQGIINF]
- MIC [1]: 7.88 µM (≈ 16 µg/mL)
- MIC [2]: ≥ 126 µM
- MIC (Candida krusei ATCC 6258): 3.94 µM (≈ 8 µg/mL)
- MIC (Staphylococcus aureus MR): 7.88 µM (≈ 16 µg/mL)
- MIC [3]: 7.88 µM (≈ 16 µg/mL)
- MIC [4]: 31.5 µM (≈ 64 µg/mL)
- MIC [5]: 7.88 µM (≈ 16 µg/mL)

SMILES: CC[C@H](C)[C@H](NC(=O)[C@H](CC(C)C)NC(=O)[C@@H]1CCCN1C(=O)[C@H](CC(C)C)NC(=O)[C@@H](N)Cc1ccccc1)C(=O)N[C@@H](CC(C)C)C(=O)N[C@@H](Cc1ccccc1)C(=O)N[C@@H](Cc1c[nH]c2ccccc12)C(=O)N[C@H](C(=O)N[C@H](C(=O)N[C@H](C(=O)N[C@@H](C)C(=O)N[C@@H](CC(C)C)C(N)=O)[C@@H](C)O)C(C)C)[C@@H](C)CC [FLPLILFWIVTAL]
- MIC [6]: ≥ 388 µM
- MIC [7]: ≥ 388 µM
- MIC [8]: > 388 µM
- MIC [9]: ≥ 388 µM
- MIC [10]: ≥ 388 µM
- MIC [11]: > 388 µM
- MIC [12]: ≥ 388 µM
- MIC [13]: > 388 µM
- MIC [14]: ≥ 388 µM

SMILES: CC(C)C[C@H](NC(=O)[C@H](CO)NC(=O)[C@H](CCC(=O)O)NC(=O)[C@H](CC(C)C)NC(=O)[C@H](CCC(N)=O)NC(=O)[C@H](CCC(N)=O)NC(=O)[C@H](CCC(=O)O)NC(=O)[C@H](CC(C)C)NC(=O)[C@H](CCC(N)=O)NC(=O)[C@H](CO)NC(=O)[C@H](CC(C)C)NC(=O)[C@H](CCC(=O)O)NC(=O)[C@H](CCC(N)=O)NC(=O)[C@H](CCC(=O)O)NC(=O)[C@H](CC(C)C)NC(=O)[C@H](CO)NC(=O)[C@H](CCC(N)=O)NC(=O)[C@H](C)NC(=O)[C@H](CCC(=O)O)NC(=O)[C@H](CCC(N)=O)NC(=O)[C@H](CCC(=O)O)NC(=O)[C@H](Cc1ccccc1)NC(=O)[C@H](CCC(N)=O)NC(=O)[C@H](C)NC(=O)[C@H](Cc1ccccc1)NC(=O)[C@H](CCC(=O)O)NC(=O)CN)C(=O)O [GEFAQFEQEAQSLEQELSQLEQQLESL]
- MIC [6]: ≥ 200 µM
- MIC [15]: ≥ 200 µM
- MIC (Escherichia coli K-12): ≥ 200 µM
- MIC [16]: > 200 µM
- MIC [13]: > 200 µM

SMILES: CC[C@H](C)[C@H](N)C(=O)N[C@@H](CCCN=C(N)N)C(=O)NCC(=O)N[C@@H](Cc1ccc(O)cc1)C(=O)N[C@@H](CCCCN)C(=O)NCC(=O)NCC(=O)N[C@@H](Cc1ccc(O)cc1)C(=O)N[C@@H](CS)C(=O)N[C@@H](CCCCN)C(N)=O [IRGYKGGYCK]
- MIC [17]: 15.4 µM (≈ 17.6 µg/mL)
- MIC (Candida krusei NCPF 3876): ≥ 112 µM
- MIC [18]: ≥ 112 µM
- MIC [19]: ≥ 112 µM
- MIC [20]: > 112 µM
- MIC [21]: ≥ 112 µM
- MIC [22]: ≥ 112 µM
- MIC [23]: ≥ 112 µM

Second part, the compound after the results:

- MIC (Escherichia coli K-12): 12.5 µM (≈ 25 µg/mL)
- MIC [20]: > 50 µM
- MIC [24]: ≥ 50 µM
SMILES: CC(C)C[C@H](NC(=O)[C@H](Cc1ccccc1)NC(=O)[C@H](C)NC(=O)[C@H](C)NC(=O)[C@H](CCCCN)NC(=O)[C@H](CCCCN)NC(=O)[C@H](CCCCN)NC(=O)[C@@H](N)CCCCN)C(=O)N[C@@H](CCCCN)C(=O)N[C@@H](CC(C)C)C(=O)N[C@@H](Cc1c[nH]c2ccccc12)C(=O)N[C@@H](CC(C)C)C(=O)N[C@@H](CCCCN)C(=O)N[C@@H](CC(C)C)C(=O)N[C@@H](Cc1ccccc1)C(=O)N[C@@H](C)C(=O)N[C@@H](C)C(N)=O [KKKKAAFLKLWLKLFAA]

- MIC [25]: 3.04 µM (≈ 4.5 µg/mL)
- MIC [26]: 3.04 µM (≈ 4.5 µg/mL)
- MIC [27]: 5.75 µM (≈ 8.49 µg/mL)
- MIC [28]: 16.1 µM (≈ 23.8 µg/mL)
- MIC [11]: 11.5 µM (≈ 17 µg/mL)
- MIC [29]: 5.75 µM (≈ 8.49 µg/mL)
- MIC [30]: 5.75 µM (≈ 8.49 µg/mL)
- MIC [13]: 11.5 µM (≈ 17 µg/mL)
SMILES: CC[C@H](C)[C@H](NC(=O)[C@H](CCCCN)NC(=O)[C@H](CCCN=C(N)N)NC(=O)[C@H](Cc1ccccc1)NC(=O)[C@H](CC(C)C)NC(=O)[C@H](CCCN=C(N)N)NC(=O)[C@@H](N)CCCCN)C(=O)N[C@@H](CC(C)C)C(=O)N[C@@H](CCCCN)C(=O)N[C@@H](Cc1ccc(O)cc1)C(=O)N[C@@H](CC(C)C)C(N)=O [KRLFRKILKYL]

- MIC [31]: 0.552 µM (≈ 2 µg/mL)
- MIC [32]: 1.66 µM (≈ 6 µg/mL)
- MIC [33]: 11 µM (≈ 39.9 µg/mL)
- MIC [16]: 0.414 µM (≈ 1.5 µg/mL)
- MIC [34]: > 8.83 µM
- MIC [35]: 11 µM (≈ 39.9 µg/mL)
- MIC [13]: > 8.83 µM
- MIC [36]: 11 µM (≈ 39.9 µg/mL)
SMILES: CC[C@H](C)[C@H](NC(=O)[C@H](CC(C)C)NC(=O)[C@H](CC(N)=O)NC(=O)CNC(=O)[C@H](Cc1ccccc1)NC(=O)[C@@H](NC(=O)[C@H](CCCN=C(N)N)NC(=O)[C@@H](NC(=O)[C@H](CC(C)C)NC(=O)[C@H](CCC(N)=O)NC(=O)[C@H](Cc1ccc(O)cc1)NC(=O)[C@@H](N)Cc1c[nH]c2ccccc12)[C@@H](C)CC)[C@@H](C)O)C(=O)N[C@@H](Cc1cnc[nH]1)C(=O)N[C@@H](CCC(N)=O)C(=O)N[C@@H](CCCCN)C(=O)N[C@@H](Cc1ccc(O)cc1)C(=O)N[C@@H](CCCN=C(N)N)C(=O)N[C@@H](CCCCN)C(=O)N[C@@H](CC(C)C)C(=O)N[C@@H](CC(C)C)C(=O)N[C@@H](CCC(=O)O)C(=O)N[C@@H](C)C(=O)N[C@@H](Cc1ccc(O)cc1)C(=O)N[C@@H](CCCN=C(N)N)C(=O)N[C@@H](CCCCN)C(=O)N[C@@H](CC(C)C)C(=O)N[C@@H](CCCN=C(N)N)C(=O)N[C@@H](CC(=O)O)C(=O)O [WYQLIRTFGNLIHQKYRKLLEAYRKLRD]
